Each structure is given as a SMILES string.

This test addresses T1, OGA (O-GlcNAcase) (Homo sapiens, UniProt O60502).
T1 sequence (O60502 1-916): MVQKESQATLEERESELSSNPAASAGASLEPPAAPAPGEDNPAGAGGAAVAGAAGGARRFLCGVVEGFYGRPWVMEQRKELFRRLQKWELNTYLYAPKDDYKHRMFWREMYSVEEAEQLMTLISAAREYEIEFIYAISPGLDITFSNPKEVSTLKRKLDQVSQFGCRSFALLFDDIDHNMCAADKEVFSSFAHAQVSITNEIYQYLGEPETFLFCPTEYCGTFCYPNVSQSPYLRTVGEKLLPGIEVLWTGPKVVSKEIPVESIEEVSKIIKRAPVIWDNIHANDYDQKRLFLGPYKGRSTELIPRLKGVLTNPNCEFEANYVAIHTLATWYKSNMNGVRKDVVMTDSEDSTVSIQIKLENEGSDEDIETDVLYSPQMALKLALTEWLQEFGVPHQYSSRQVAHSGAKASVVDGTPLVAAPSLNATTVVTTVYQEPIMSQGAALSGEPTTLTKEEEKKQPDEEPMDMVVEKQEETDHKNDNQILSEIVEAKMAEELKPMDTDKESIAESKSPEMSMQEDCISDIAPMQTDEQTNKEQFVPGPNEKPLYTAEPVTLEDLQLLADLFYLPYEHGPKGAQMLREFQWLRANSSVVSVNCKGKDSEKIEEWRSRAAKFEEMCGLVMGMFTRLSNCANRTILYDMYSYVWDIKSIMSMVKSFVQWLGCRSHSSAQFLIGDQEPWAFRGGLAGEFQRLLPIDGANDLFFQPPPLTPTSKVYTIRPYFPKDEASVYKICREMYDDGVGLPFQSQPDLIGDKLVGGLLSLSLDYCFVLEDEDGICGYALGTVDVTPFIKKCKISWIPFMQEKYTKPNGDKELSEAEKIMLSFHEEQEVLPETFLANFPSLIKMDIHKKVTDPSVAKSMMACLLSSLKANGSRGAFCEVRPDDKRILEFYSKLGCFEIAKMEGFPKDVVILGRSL
Briefly: Michaelis-Menten hydrolysis kinetics, absorbance at […] nm. The test is classed as biochemical.

Take `COc1ccc(O[C@@H]2S[C@H](CO)[C@@H](O)[C@H](O)[C@H]2NC(C)=O)cc1` [compound 7, para-methoxyphenyl 2-acetamido-2-deoxy-5-thio-β-D-glucopyranoside]: the “Michaelis-Menten hydrolysis kinetics, absorbance at 296 nm” value is 8.1 μmol s^−1 mg^−1 M^−1.

In the case of `COc1ccc(O[C@@H]2O[C@H](CO)[C@@H](O)[C@H](O)[C@H]2NC(C)=O)cc1` [compound 6, para-methoxyphenyl 2-acetamido-2-deoxy-β-D-glucopyranoside], the “Michaelis-Menten hydrolysis kinetics, absorbance at 296 nm” value amounted to 40.7 μmol s^−1 mg^−1 M^−1.

For the origin of these results see article PMC3202988 (Nature chemical biology, 2011).
